Measured values taken from EPA's ToxValDB 9.5.
≈ marks a conversion by molar mass, not a printed value.

Experiments:
Rattus norvegicus = conditions: for LD50: mortality
Leuciscus idus = conditions: acute; duration: 96 hours; mortality
Colinus virginianus = conditions: for LD50: acute, oral, mortality
Coturnix coturnix = conditions: acute; oral; mortality
Canidae = conditions: Dog Other
Mus musculus = conditions: acute; oral; F; mortality
Bird = conditions: acute; oral; unspecified; mortality
Anas platyrhynchos = conditions: for LC50: short-term, oral, feed, mortality
[1] = tested on: Vigna radiata var. radiata; conditions: not reported; other
Tagia sp. = conditions: for LC50: acute, duration: 14 days
Macaca mulatta = conditions: chronic; duration: 183 days; oral; capsule; M/F; clinical chemistry
Oncorhynchus mykiss = conditions: for LC50: acute, duration: 96 hours, mortality
Coturnix japonica = conditions: reproduction developmental
Sus scrofa = conditions: oral, Not specified
Neovison vison = conditions: chronic; duration: 93 days; oral; diet; neurology
Ovis sp. = conditions: subchronic; duration: 59 days; oral; diet; neurology
Felidae = conditions: chronic; duration: 420 days; oral; diet; M/F; Cat; neurology
Bovidae = conditions: subchronic; duration: 90 days; neurology
Daphnia magna = conditions: chronic/long-term; duration: 21 days; reproduction
Bibionidae = conditions: chronic/long-term
Typhlodromus pyri = experiment: LR50; higher = less toxic; conditions: not reported; mortality
Apis mellifera = conditions: acute, mortality
Zea sp. = conditions: acute; duration: 22 days; biomass
Aphidius rhopalosiphi [2] = conditions: not reported; mortality
Chrysoperla externa = experiment: LR50; higher = less toxic; conditions: not reported; duration: 34 days; mortality
Phasianus sp. = conditions: subchronic; duration: 35 days; oral; feed; food consumption
Meleagris sp. = conditions: chronic/long-term; duration: 16 weeks; oral; feed; M/F; no effects
Numida meleagris = conditions: subchronic; duration: 35 days; oral; feed; no effects
Equus caballus [3] = conditions: acute; oral; unspecified; mortality
Equus caballus [4] = experiment: ALD; higher = less toxic; conditions: acute; oral; unspecified; mortality
Lepomis macrochirus = conditions: acute; duration: 96 hours; mortality
Gasterosteus aculeatus = conditions: acute; duration: 96 hours; mortality
Aphidius rhopalosiphi [5] = experiment: LR50; higher = less toxic; conditions: acute; duration: 48 hours; mortality
Pimephales promelas = conditions: chronic/long-term; duration: 255 days; growth
[6] = chronic, duration: 2 years, clinical chemistry
[7] = chronic/long-term, duration: 28 days, growth
[8] = duration: 48 hours, oral, unspecified

CN(C)C.Cl [Trimethylamine hydrochloride]
NOAEL (Rattus norvegicus; subchronic, duration: 90 days): 144 mg/kg-day
LC50 (Leuciscus idus): > 500 µg/mL

CCOP(=S)(OCC)Oc1nc(Cl)c(Cl)cc1Cl [Chlorpyrifos]
LD50 (Colinus virginianus; duration: 1 hours): 75 mg/kg
LD50 (Coturnix coturnix): 13.3 mg/kg
NOAEL (Rattus norvegicus; acute, clinical chemistry): 0.5 mg/kg-day
NOAEL (Rattus norvegicus; [6]): 0.1 mg/kg-day
NOAEL (Rattus norvegicus; reproduction developmental): 1 mg/kg-day
NOAEL (Rattus norvegicus; reproduction developmental, clinical chemistry): 0.1 mg/kg-day
NOAEL (Canidae; [6]): 0.1 mg/kg-day
LD50 (Mus musculus): 64 mg/kg
LD50 (Bird): 122 mg/kg
NOEC (Anas platyrhynchos; reproductive, reproduction): 2.88 mg/kg-day
LC50 (Anas platyrhynchos): 71 mg/kg-day

Cc1cc(C)[nH]c(=O)n1 [4,6-Dimethylpyrimidin-2-ol]
NOEC [1]: 2.63 mg/kg
LC50 (Tagia sp.; no effects): > 1000 mg/kg

O=S(=O)(O)C(F)(F)C(F)(F)C(F)(F)C(F)(F)C(F)(F)C(F)(F)C(F)(F)C(F)(F)F [Perfluorooctanesulfonic acid]
NOAEL (Macaca mulatta): 0.03 mg/kg-day

O=c1oc2ccccc2c(O)c1C1CC(c2ccc(-c3ccccc3)cc2)Cc2ccccc21 (stereo not given) [Difenacoum]
LD50 (Colinus virginianus): 56 mg/kg-day
NOAEL (Oryctolagus sp.; reproduction developmental, hematological): 0.005 mg/kg-day
LC50 (Oncorhynchus mykiss): 0.064 µg/mL (≈ 0.144 µM)
NOEC (Coturnix japonica): > 0.01 mg/kg-day
LD50 (Rattus norvegicus; acute, oral): 1.8 mg/kg-day
LD50 (Canidae; acute, oral, mortality): 50 mg/kg-day
LD50 (Sus scrofa; acute, mortality): 80 mg/kg-day
LC50 (Anas platyrhynchos): 3.5 mg/kg-day

[CH3][Hg+] [Methyl mercury(II) cation]
LOAEL (Neovison vison): 0.18 mg/kg-day
NOAEL (Oncorhynchus mykiss; chronic/long-term, duration: 112 days, oral, feed, hematological): 0.17 mg/kg-day
LOAEL (Ovis sp.): 0.225 mg/kg-day
NOAEL (Felidae): 0.02 mg/kg-day
LOAEL (Canidae; chronic, duration: 385 days, oral, neurology): 0.12 mg/kg-day
NOAEL (Bovidae): 0.1 mg/kg-day
NOAEL (Sus scrofa; subchronic, duration: 60 days, diet, histopathology: nonneoplastic): 0.19 mg/kg-day
NOAEL (Gallus gallus; reproduction developmental, duration: 50 days, F, reproduction): 0.75 mg/kg-day
LOAEL (Anas platyrhynchos; reproductive, development): 5 mg/kg

Nc1c(Cl)cc([N+](=O)[O-])cc1Cl [1-Amino-2,6-dichloro-4-nitrobenzene]
NOEC (Colinus virginianus; reproduction developmental): 35.2 mg/kg-day
NOEC (Oncorhynchus mykiss; [7]): 0.05 mg/L
NOEL (Rattus norvegicus; reproduction developmental, body weight): 19 mg/kg-day
NOEC (Daphnia magna): 0.032 mg/L
NOAEL (Canidae; chronic, duration: 1 years, oral, hematological): 2.5 mg/kg-day
NOEC (Tagia sp.; chronic/long-term, duration: 56 days): 77.8 mg/kg
NOEC (Bibionidae): 0.6 mg/L
LR50 (Typhlodromus pyri): 374 g/ha

C/C=C(\C)C(=O)O[C@H]1C[C@@H](OC(C)=O)[C@@]2(C(=O)OC)CO[C@H]3[C@@H](O)[C@@](C)([C@]45O[C@@]4(C)[C@H]4C[C@@H]5O[C@@H]5OC=C[C@@]54O)[C@H]4[C@]1(CO[C@]4(O)C(=O)OC)[C@@H]32 [Azadirachtin]
LC50 (Oncorhynchus mykiss): 0.048 µg/mL (≈ 0.0666 µM)
NOEC (Oncorhynchus mykiss; [7]): 0.0047 mg/L
NOEC (Daphnia magna): 0.038 mg/L
LD50 (Apis mellifera; dermal): > 11.8 µg/piece
LD50 (Apis mellifera; [8]): > 8.1 µg/piece
LD50 (Apis mellifera; oral, unspecified): > 8.1 µg/piece
LEL (Zea sp.): 30.9 g/ha
LEL (Aphidius rhopalosiphi [2]): 57.6 g/ha
LC50 (Tagia sp.; mortality): > 1000 mg/kg
NOEC (Bibionidae; duration: 28 days): 0.0016 mg/L
NOEC (Bibionidae; duration: 28 days, development): 0.0016 mg/L
LR50 (Chrysoperla externa): 0.77 g/ha

CC[C@@H](C(=O)[C@@H](C)[C@@H](O)[C@H](C)CCc1ccc(C)c(O)c1C(=O)[O-])[C@H]1O[C@](CC)([C@H]2CC[C@](O)(CC)[C@H](C)O2)C[C@@H]1C.[Na+] [Lasalocid sodium]
NOEL (Oryctolagus sp.; developmental, duration: 23 days, oral, gavage, F, New Zealand, development): 0.5 mg/kg-day
LEL (Phasianus sp.): 180 mg/kg
NOEL (Rattus norvegicus; chronic, duration: 2 years, oral, M, organ weight): 0.5 mg/kg-day
LEL (Meleagris sp.): 375 mg/kg
LEL (Canidae; repeat dose other, oral, diet, clinical signs): 5 mg/kg-day
LEL (Numida meleagris): 240 mg/kg
LD50 (Equus caballus [3]): 15 mg/kg
LEL (Gallus gallus; subchronic, duration: 13 weeks, M/F, growth): 225 mg/kg-day
LC50 (Tagia sp.; mortality): 71.8 mg/kg
LC50 (Danio rerio; acute, duration: 96 hours, mortality): 2.5 µg/mL
ALD (Equus caballus [4]): 15 mg/kg

CC(COc1ccc(Oc2ccccc2)cc1)Oc1ccccn1 (stereo not given) [Pyriproxyfen]
NOEC (Oncorhynchus mykiss; chronic/long-term, duration: 95 days): 0.0043 mg/L
NOEC (Daphnia magna): 1.5e-05 mg/L
LD50 (Apis mellifera; [8]): 74 µg/piece
NOEC (Bibionidae; duration: 28 days, other): 0.01 mg/L
LC50 (Lepomis macrochirus): > 0.27 µg/mL

CCOC(=O)CC(SP(=S)(OC)OC)C(=O)OCC (stereo not given) [Malathion]
NOEC (Oncorhynchus mykiss; chronic/long-term, duration: 97 days, morphology): 0.021 mg/L
NOAEL (Rattus norvegicus; chronic, duration: 2 years, neurology): 29 mg/kg-day
NOAEL (Rattus norvegicus; subchronic, duration: 90 days, neurology): 34 mg/kg-day
NOEC (Daphnia magna): 6e-05 mg/L
LD50 (Apis mellifera; duration: 48 hours, dermal): 0.16 µg/piece
LC50 (Gasterosteus aculeatus): 0.022 µg/mL (≈ 0.0666 µM)
LC50 (Tagia sp.; mortality): 613 mg/kg
LR50 (Aphidius rhopalosiphi [5]): 0.0612 g/ha

O=C(O)CNCP(=O)(O)O [Glyphosate]
LD50 (Colinus virginianus): 4330 mg/kg-day
NOEL (Colinus virginianus; reproduction developmental): 96.3 mg/kg-day
NOAEL (Oryctolagus sp.; chronic): 50 mg/kg-day
LD50 (Rattus norvegicus; acute, oral): > 2000 mg/kg-day
NOEC (Daphnia magna): 12.5 mg/L
NOEC (Pimephales promelas): 25.7 mg/L
NOEL (Anas platyrhynchos; reproductive): 125 mg/kg-day
NOEC (Danio rerio; short-term, duration: 168 hours, growth): 1 mg/L
